This passage reports IC50 results from ChEMBL document CHEMBL1134820, “Synthesis of antitumor dendritic imides” (Bioorg Med Chem Lett, 2001).

One assay deals with HT-29. Kind of assay: Cytotoxic effect on human colon carcinoma HT-29 cell line. As to conditions: read-out: ID50 (the source's name). Format: functional.
In assay [1] the target is Tyrosine-protein kinase Lck (Homo sapiens, UniProt P06239). The assay can be described thus: Inhibition of lck catalytic domain expressed in baculovirus.

pIC50: −log10 of the molar value. A value given as a limit tells only on which side of the number the result lay.

Tyrosine-protein kinase Lck, sequence (P06239 whole entry, the tested form may be a part): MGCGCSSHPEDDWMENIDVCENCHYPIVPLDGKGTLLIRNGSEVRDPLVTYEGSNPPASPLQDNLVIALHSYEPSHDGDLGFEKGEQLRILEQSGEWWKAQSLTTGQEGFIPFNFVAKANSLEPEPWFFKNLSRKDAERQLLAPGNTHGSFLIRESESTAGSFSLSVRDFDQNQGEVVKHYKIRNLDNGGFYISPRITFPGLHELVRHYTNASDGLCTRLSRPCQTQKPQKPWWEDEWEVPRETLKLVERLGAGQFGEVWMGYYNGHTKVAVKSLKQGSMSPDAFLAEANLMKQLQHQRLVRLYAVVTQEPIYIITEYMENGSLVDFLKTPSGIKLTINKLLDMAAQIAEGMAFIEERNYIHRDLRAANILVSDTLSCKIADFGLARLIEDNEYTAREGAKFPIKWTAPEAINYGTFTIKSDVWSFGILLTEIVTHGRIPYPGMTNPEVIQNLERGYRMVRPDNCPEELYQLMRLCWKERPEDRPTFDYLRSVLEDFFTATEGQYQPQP

In the case of `N#CCCN(CCC#N)CCCN(CCCN(CCC#N)CCC#N)CCCN(CCN)CCCN(CCCN(CCC#N)CCC#N)CCCN(CCC#N)CCC#N`, the pIC50 in the assay on HT-29 is under 4.00.
Still for that read-out and setting: next, `NCCCN(CCCN)CCCN(CCCN(CCCN)CCCN)CCCN(CCCN(CCCN(CCCN)CCCN)CCCN(CCCN)CCCN)CCN1C(=O)c2cccc3cccc(c23)C1=O`: 4.36.
Consider `N#CCCN(CCC#N)CCCN(CCCN(CCC#N)CCC#N)CCCN(CCCN(CCCN(CCC#N)CCC#N)CCCN(CCC#N)CCC#N)CCN1C(=O)c2cccc3cccc(c23)C1=O`, for which the pIC50 with HT-29 is under 4.00; in assay [1], under 4.30.
Turning to `N#CCCN(CCC#N)CCCN(CCCN(CCC#N)CCC#N)CCCN(CCCN(CCCN(CCC#N)CCC#N)CCCN(CCC#N)CCC#N)CCN1C(=O)c2cccc3cc(N)cc(c23)C1=O`, in the assay with HT-29, the pIC50 is under 4.00.
Regarding `N#CCCN(CCC#N)CCCN(CCCN(CCC#N)CCC#N)CCCN(CCCN(CCCN(CCC#N)CCC#N)CCCN(CCC#N)CCC#N)CCN1C(=O)c2cccc3cc([N+](=O)[O-])cc(c23)C1=O`, the pIC50 with HT-29 was under 4.00.
For `N#CCCN(CCC#N)CCCN(CCCN(CCC#N)CCC#N)CCCN(CCCN(CCCN(CCC#N)CCC#N)CCCN(CCC#N)CCC#N)CCN1C(=O)C(c2ccccc2)=C(c2ccccc2)C1=O`, the pIC50 in the assay on HT-29 is 4.24; in assay [1] it was under 4.30.
As to `NCCCN(CCCN)CCCN(CCCN(CCCN)CCCN)CCCN(CCCN(CCCN(CCCN)CCCN)CCCN(CCCN)CCCN)CCN1C(=O)C(c2ccccc2)=C(c2ccccc2)C1=O`, the pIC50 in the assay with HT-29 is 4.00.
On the same count and under the same terms, the result for `CN(C)CCN1C(=O)c2cccc3cc(N)cc(c23)C1=O` [AMONAFIDE] reads 4.42.
On the same count and under the same terms, the result for `O=C1c2cccc3cccc(c23)C(=O)N1CCNCCCNCCN1C(=O)c2cccc3cccc(c23)C1=O` [ELINAFIDE] reads 7.85.
